From patent US20250114367A1, “METHOD OF TREATING HAIR LOSS DISORDERS” (Sun Pharmaceutical Industries, Inc., priority 2023, published 2025)

System: adult subjects with moderate to severe AA
Test: Phase III trial: Hair Satisfaction Patient Reported Outcome (SPRO)
Assay type: in vivo, human
Set-up: key to SPRO responders, treatment difference: Common Risk Difference (Mantel-Haenszel): difference in proportion of responders (satisfied or very satisfied)
Conditions: for SPRO Responders: No / SPRO Responders: Yes ('Very satisfied' or 'Satisfied') / SPRO Responses: 1 = Very Satisfied / SPRO Responses: 2 = Satisfied / SPRO Responses: 3 = Neither Satisfied Nor Dissatisfied / SPRO Responses: 4 = Dissatisfied / SPRO Responses: 5 = Very Dissatisfied / percentage of subjects with a ≥2 point change from baseline in SPRO / proportion of SPRO responders (very satisfied or satisfied) / percentage of SPRO responders: non-missing data; for SPRO responders, treatment difference: Common Risk Difference (Mantel-Haenszel): MI with MAR assumption
Excerpt: The SPRO is a single-item questionnaire answered by the subject and designed to measure how satisfied Alopecia Areata subjects are with their hair at the time of the assessment. Subjects answer questions on a scale of 1 to 5, representing “Very satisfied” to “Very dissatisfied.” Satisfaction categories 1-5 of the scale were defined as follows: 1=“Very Satisfied”; 2=“Satisfied”; 3=“Neither Satisfied nor Dissatisfied”; 4=Dissatisfied”; and 5=“Very Dissatisfied”.
The results of the SPRO was analyzed in three different ways: 1) the percentage of responders, 2) the change from baseline, and 3) the percentage of subjects achieving a ≥2.0 point change from baseline.
A Phase III trial was conducted to assess the efficacy and safety of CTP-543 in adult subjects with moderate to severe AA. Approximately 440 adult male and female subjects 18 to 65 years of age, inclusive, with moderate to severe AA participated in the study. Subjects with definitive diagnosis of AA, and at least 50% hair loss, as defined by a SALT score ≥50, who met all of the inclusion criteria and none of the exclusion criteria participated in the study.
The Screening Period lasted up to 28 days prior to initiation of study drug. […] Randomization was stratified by scalp hair loss into 1 of the following 2 categories: 1) partial scalp hair loss (SALT ≥50 and <95), 2) complete or near complete scalp hair loss (SALT ≥95).
The key secondary efficacy endpoints were the percentage of responders (defined as “satisfied” or “very satisfied”) on the Hair Satisfaction Patient Reported Outcome (SPRO) scale at Week 24, 20, 16, 12, and 8.
Additional secondary efficacy endpoints included the following: • Relative change in SALT scores from baseline at Weeks 4, 8, 12, 16, 20, and 24. • Percentage of responders (defined as “much improved” or “very much improved”) using the Clinical Global Impression of Improvement (CGI-I) at Weeks 12, 16, 20, and 24. • Percentage of responders (defined as “much improved” or “very much improved”) using the Patient Global Impression of Improvement (PGI-I) at Weeks 12, 16, 20, and 24. • Change from baseline in the Clinical Global Impression of Severity (CGI-S) at Weeks 12, 16, 20, and 24. • Change from baseline in the Patient Global Impression of Severity (PGI-S) at Weeks 12, 16, 20, and 24. • Change from baseline on the Brigham Eyebrow Tool for Alopecia (BETA) score at Weeks 12 and 24. • Change from baseline on the Brigham Eyelash Tool for Alopecia (BELA) score at Weeks 12 and 24. • Percentage of subjects achieving at least a 75% relative reduction in SALT score from baseline at Weeks 12 and 24. • Percentage of subjects achieving at least a 90% relative reduction in SALT score from baseline at Weeks 12 and 24. • Percentage of responders (defined as “satisfied” or “very satisfied”) on the SPRO scale at Weeks 12, 16, and 20. • Change from baseline in the SPRO scale at Weeks 12, 16, 20, and 24. • Percentage of subjects achieving a ≥2-point change from baseline in the SPRO scale at Weeks 12, 16, 20, and 24. • Change from baseline on the individual items of the Hair Quality Patient Reported Outcome (QPRO) scale at Weeks 12, 16, 20, and 24. • Change from baseline in the depression scale of the Hospital Anxiety and Depression Scale (HADS) at Week 24. • Change from baseline in the anxiety scale of the HADS at Week 24. • Percentage of subjects achieving an absolute SALT score of ≤20 at Week 4. • Percentage of subjects achieving an absolute SALT score of ≤10 at Week 24 […]

[2H]C1([2H])C([C@@H](CC#N)n2cc(-c3ncnc4[nH]ccc34)cn2)C([2H])([2H])C([2H])([2H])C1([2H])[2H] [CTP-543, (R)-3-(4-(7H-pyrrolo[2,3-d]pyrimidin-4-yl)-1H-pyrazol-1-yl)-3-(cyclopentyl-2,2,3,3,4,4,5,5-d8) propanenitrile]
SPRO score, LS mean change from baseline (Week 12, 8 mg BID): −1.6 | SPRO score, LS mean change from baseline (Week 12, 12 mg BID): −1.7 | SPRO score, LS mean change from baseline (Week 16, 8 mg BID): −1.6 | SPRO score, LS mean change from baseline (Week 16, 12 mg BID): −1.7 | SPRO score, LS mean change from baseline (Week 20, 8 mg BID): −1.5 | SPRO score, LS mean change from baseline (Week 20, 12 mg BID): −1.8 | SPRO score, LS mean change from baseline (Week 24, 8 mg BID): −1.6 | SPRO Responders: No (Week 24, 8 mg BID (N = 249)): 122 (53.5) n (%) | SPRO Responders: Yes ('Very satisfied' or 'Satisfied') (Week 24, 8 mg BID (N = 249)): 106 (46.5) n (%) | SPRO Responses: 1 = Very Satisfied (Week 24, 8 mg BID (N = 249)): 40 (17.5) n (%) | SPRO Responses: 2 = Satisfied (Week 24, 8 mg BID (N = 249)): 66 (38.9) n (%) | SPRO Responses: 3 = Neither Satisfied Nor Dissatisfied (Week 24, 8 mg BID (N = 249)): 34 (14.9) n (%) | SPRO Responses: 4 = Dissatisfied (Week 24, 8 mg BID (N = 249)): 34 (14.9) n (%) | SPRO Responses: 5 = Very Dissatisfied (Week 24, 8 mg BID (N = 249)): 54 (23.7) n (%) | SPRO responders, treatment difference: Common Risk Difference (Mantel-Haenszel) (Week 24, 8 mg BID compared to Placebo): 0.45 | percentage of subjects with a ≥2 point change from baseline in SPRO (Week 24, 8 mg BID): 52.6% | proportion of SPRO responders (very satisfied or satisfied) (Week 24, 8 mg BID): 46.5% | SPRO score, LS mean change from baseline (Week 24, 12 mg BID): −1.8 | SPRO Responders: No (Week 24, 12 mg BID (N = 127)): 58 (48.3) n (%) | SPRO Responders: Yes ('Very satisfied' or 'Satisfied') (Week 24, 12 mg BID (N = 127)): 62 (51.7) n (%) | SPRO Responses: 1 = Very Satisfied (Week 24, 12 mg BID (N = 127)): 24 (20.0) n (%) | SPRO Responses: 2 = Satisfied (Week 24, 12 mg BID (N = 127)): 38 (31.7) n (%) | SPRO Responses: 3 = Neither Satisfied Nor Dissatisfied (Week 24, 12 mg BID (N = 127)): 23 (19.2) n (%) | SPRO Responses: 4 = Dissatisfied (Week 24, 12 mg BID (N = 127)): 18 (15.0) n (%) | SPRO Responses: 5 = Very Dissatisfied (Week 24, 12 mg BID (N = 127)): 17 (14.2) n (%) | SPRO responders, treatment difference: Common Risk Difference (Mantel-Haenszel) (Week 24, 12 mg BID compared to Placebo): 0.49 | percentage of subjects with a ≥2 point change from baseline in SPRO (Week 24, 12 mg BID): 61.7% | proportion of SPRO responders (very satisfied or satisfied) (Week 24, 12 mg BID): 51.7 | percentage of SPRO responders (week 12, 8 mg BID): 43.2% | percentage of subjects with a ≥2 point change from baseline in SPRO (week 12, 8 mg BID): 50.4% | percentage of SPRO responders (week 12, 12 mg BID): 41.0% | percentage of subjects with a ≥2 point change from baseline in SPRO (week 12, 12 mg BID): 59.0% | percentage of SPRO responders (week 16, 8 mg BID): 41.0% | percentage of subjects with a ≥2 point change from baseline in SPRO (week 16, 8 mg BID): 52.6% | percentage of SPRO responders (week 16, 12 mg BID): 45.1% | percentage of subjects with a ≥2 point change from baseline in SPRO (week 16, 12 mg BID): 57.4% | percentage of SPRO responders (week 20, 8 mg BID): 40.1% | percentage of subjects with a ≥2 point change from baseline in SPRO (week 20, 8 mg BID): 50.4% | percentage of SPRO responders (week 20, 12 mg BID): 52.5% | percentage of subjects with a ≥2 point change from baseline in SPRO (week 20, 12 mg BID): 63.6%
